Results reported in paper PMC7296983 (Journal of medicinal chemistry, 2019).
Each block holds one molecule with its values, some of them ahead of it.

Key:
NNMT [1] = settings: cited from earlier work
HCT116 = type: in vitro ADME; settings: human, 100 μM
NNMT [2] = molecular target: T1, NNMT (Homo sapiens, UniProt P40261); experiment: SAH hydrolase; type: biochemical; settings: for activity compared to respective parent compound 1g, 1h and 3a: aspartic replaced by glutamic amino acid portion
T1 sequence (P40261 1-264): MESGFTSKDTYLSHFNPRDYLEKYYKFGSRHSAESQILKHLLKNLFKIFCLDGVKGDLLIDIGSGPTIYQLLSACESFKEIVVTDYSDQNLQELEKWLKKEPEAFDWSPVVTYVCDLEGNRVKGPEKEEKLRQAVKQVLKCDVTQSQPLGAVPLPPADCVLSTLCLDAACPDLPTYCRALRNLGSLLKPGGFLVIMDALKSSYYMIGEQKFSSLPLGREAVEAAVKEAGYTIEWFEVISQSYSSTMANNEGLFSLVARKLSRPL

PRMT1 = PRMT1 (Homo sapiens, UniProt Q99873); experiment: Selectivity assay, SAHH-coupled fluorescence; type: biochemical
TbPRMT7 = TbPRMT7 (Trypanosoma brucei brucei, UniProt Q582G4); experiment: biochemical
NTMT1 = molecular target: T2, NTMT1 (Homo sapiens, UniProt Q9BV86); experiment: Selectivity assay, SAHH-coupled fluorescence; type: biochemical; settings: read-out: Enzyme activity (%)
T2 sequence (Q9BV86 1-223): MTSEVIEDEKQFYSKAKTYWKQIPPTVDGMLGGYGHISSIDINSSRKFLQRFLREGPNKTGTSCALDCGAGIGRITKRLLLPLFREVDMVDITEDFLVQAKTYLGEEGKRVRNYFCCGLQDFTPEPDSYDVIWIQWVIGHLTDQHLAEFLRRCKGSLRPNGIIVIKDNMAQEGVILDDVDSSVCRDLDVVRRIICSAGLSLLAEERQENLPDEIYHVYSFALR

NNMT [3] = settings: cited from earlier work; remark: listed apart in the source
NNMT [4] = settings: cited from earlier work; remark: listed apart in the source
SAH hydrolase = substrate: C[S+](CC[C@H](N)C(=O)[O-])C[C@H]1O[C@@H](n2cnc3c(N)ncnc32)[C@H](O)[C@@H]1O; experiment: SAH hydrolase; type: biochemical, human; settings: other: substrate and cofactor, Figure S1; pH 7.5; 37.0 °C
[5] = substrate: NC(=O)c1cccnc1; experiment: purified protein, by the assay type; settings: other: substrate and cofactor, Figure S1; pH 7.5; 37.0 °C

Sequence of PRMT1 (Q99873 whole entry, species assumed): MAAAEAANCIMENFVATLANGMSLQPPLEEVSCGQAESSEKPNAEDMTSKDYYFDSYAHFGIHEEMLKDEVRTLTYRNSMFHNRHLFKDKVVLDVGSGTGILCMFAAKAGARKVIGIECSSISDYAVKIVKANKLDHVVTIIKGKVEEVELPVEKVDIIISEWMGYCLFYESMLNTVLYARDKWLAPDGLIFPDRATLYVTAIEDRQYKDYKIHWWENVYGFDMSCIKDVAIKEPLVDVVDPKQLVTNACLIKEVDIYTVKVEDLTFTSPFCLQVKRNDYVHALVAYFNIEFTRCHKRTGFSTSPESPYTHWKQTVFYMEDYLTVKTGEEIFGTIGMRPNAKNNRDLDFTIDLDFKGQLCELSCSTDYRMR
Sequence of TbPRMT7 (Q582G4 whole entry): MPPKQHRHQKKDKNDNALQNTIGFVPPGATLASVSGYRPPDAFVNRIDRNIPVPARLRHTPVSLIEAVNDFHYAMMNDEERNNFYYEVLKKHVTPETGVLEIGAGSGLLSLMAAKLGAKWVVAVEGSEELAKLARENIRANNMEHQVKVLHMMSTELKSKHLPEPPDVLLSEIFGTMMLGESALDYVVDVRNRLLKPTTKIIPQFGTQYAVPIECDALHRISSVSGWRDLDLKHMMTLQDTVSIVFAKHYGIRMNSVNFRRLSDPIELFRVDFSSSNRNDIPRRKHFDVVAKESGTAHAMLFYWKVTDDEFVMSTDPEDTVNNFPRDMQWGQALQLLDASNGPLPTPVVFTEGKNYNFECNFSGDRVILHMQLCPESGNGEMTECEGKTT

Molecule: Cc1ccncc1C(N)=O [4-methylnicotinamide]
Km relative to nicotinamide (NNMT [1]): comparable to nicotinamide

Molecule: NC(=O)c1cccc(CCCN(CC[C@H](N)C(=O)O)C[C@H]2O[C@@H](n3cnc4c(N)ncnc43)[C@H](O)[C@@H]2O)c1 [Compound 1a]
cell permeability (MS detection of cellular levels) (HCT116): barely exhibited enhanced cell permeability

decrease of inhibitory activity compared with 1a (NNMT [2]): more than 3 fold
Molecule: Cc1ccc(C(N)=O)cc1CCCN(CC[C@H](N)C(=O)O)C[C@H]1O[C@@H](n2cnc3c(N)ncnc32)[C@H](O)[C@@H]1O [Compound 1b, (S)-2-amino-4-((((2R,3S,4R,5R)-5-(6-amino-9H-purin-9-yl)-3,4dihydroxytetrahydrofuran-2-yl)methyl)(3-(5-carbamoyl-2methylphenyl)propyl)amino)butanoic acid]

decrease of inhibitory activity compared with 1a (NNMT [2]): marginally affected the inhibition
Molecule: Cc1ccc(CCCN(CC[C@H](N)C(=O)O)C[C@H]2O[C@@H](n3cnc4c(N)ncnc43)[C@H](O)[C@@H]2O)cc1C(N)=O [Compound 1c, (S)-2-amino-4-((((2R,3S,4R,5R)-5-(6-amino-9H-purin-9-yl)-3,4dihydroxytetrahydrofuran-2-yl)methyl)(3-(3-carbamoyl-4methylphenyl)propyl)amino)butanoic acid]

decrease of inhibitory activity compared with 1a (NNMT [2]): 70 fold
Molecule: NC(=O)c1cccc(CCCN(CCC[C@H](N)C(=O)O)C[C@H]2O[C@@H](n3cnc4c(N)ncnc43)[C@H](O)[C@@H]2O)c1 [Compound 1d, (S)-2-amino-5-((((2R,3S,4R,5R)-5-(6-amino-9H-purin-9-yl)-3,4-dihydroxytetrahydrofuran-2-yl)methyl)(3-(3-arbamoylphenyl)propyl)amino)pentanoic acid]

Molecule: Nc1ncnc2c1ncn2[C@@H]1O[C@H](CN(CCCc2cccc3ccccc23)CCC[C@H](N)C(=O)O)[C@@H](O)[C@H]1O [Compound 1e, (S)-2-amino-5-((((2R,3S,4R,5R)-5-(6-amino-9H-purin-9-yl)-3,4-dihydroxytetrahydrofuran-2-yl)methyl)(3-(naphthalen-1-yl)propyl)amino)pentanoic acid]
activity compared to respective parent compound 1g, 1h and 3a (NNMT [2]): either comparable or 3-fold decreased activities

Molecule: Nc1ncnc2c1ncn2[C@@H]1O[C@H](CN(CCCc2ccc3ccccc3c2)CCC[C@H](N)C(=O)O)[C@@H](O)[C@H]1O [Compound 1f, (S)-2-amino-5-((((2R,3S,4R,5R)-5-(6-amino-9H-purin-9-yl)-3,4-dihydroxytetrahydrofuran-2-yl)methyl)(3-(naphthalen-2-yl)propyl)amino)pentanoic acid]
activity compared to respective parent compound 1g, 1h and 3a (NNMT [2]): either comparable or 3-fold decreased activities

decrease of inhibitory activity compared with 1a (NNMT [2]): about 700 fold
Molecule: COC(=O)c1cccc(CCCN(CC[C@H](N)C(=O)O)C[C@H]2O[C@@H](n3cnc4c(N)ncnc43)[C@H](O)[C@@H]2O)c1 [Compound 1j, (S)-2-amino-4-((((2R,3S,4R,5R)-5-(6-amino-9H-purin-9-yl)-3,4-dihydroxytetrahydrofuran-2-yl)methyl)(3-(3-(methoxycarbonyl)phenyl)propyl)amino)butanoic acid]

Molecule: NC(=O)c1cccc(C#CCN(CC[C@H](N)C(=O)O)C[C@H]2O[C@@H](n3cnc4c(N)ncnc43)[C@H](O)[C@@H]2O)c1 [Compound 2a, (S)-2-amino-4-((((2R,3S,4R,5R)-5-(6-amino-9H-purin-9-yl)-3,4-dihydroxytetrahydrofuran-2-yl)methyl)(3-(3-carbamoylphenyl)prop-2-yn-1-yl)amino)butanoic acid]
IC50 (PRMT1): > 100 µM
IC50 (TbPRMT7): > 33 µM
remaining activity at 3.7 µM (NTMT1): 64%

Molecule: NC(=O)c1cccc(C#CCN(CC[C@H](N)C(=O)O)C[C@H]2O[C@@H](n3cnc4c(N)ncnc43)[C@H](O)[C@@H]2O)c1 [Compound 2a]
cell permeability (MS detection of cellular levels) (HCT116): limited permeability

loss of activity compared to 2a (NNMT [2]): 7 fold
Molecule: COc1ccc(C(N)=O)cc1C#CCN(CC[C@H](N)C(=O)O)C[C@H]1O[C@@H](n2cnc3c(N)ncnc32)[C@H](O)[C@@H]1O [Compound 2b, (S)-2-amino-4-((((2R,3S,4R,5R)-5-(6-amino-9H-purin-9-yl)-3,4-dihydroxytetrahydrofuran-2-yl)methyl)(3-(5-carbamoyl-2-methoxyphenyl)prop-2-yn-1-yl)amino)butanoic acid]

loss of activity compared to 2a (NNMT [2]): comparable activity
Molecule: Cc1ccc(C#CCN(CC[C@H](N)C(=O)O)C[C@H]2O[C@@H](n3cnc4c(N)ncnc43)[C@H](O)[C@@H]2O)cc1C(N)=O [Compound 2c, (S)-2-amino-4-((((2R,3S,4R,5R)-5-(6-amino-9H-purin-9-yl)-3,4-dihydroxytetrahydrofuran-2-yl)methyl)(3-(3-carbamoyl-4-methylphenyl)prop-2-yn-1-yl)amino)butanoic acid]

loss of activity compared to 2a (NNMT [2]): ~500 fold
Molecule: NC(=O)c1cccc(C#CCNC[C@H]2O[C@@H](n3cnc4c(N)ncnc43)[C@H](O)[C@@H]2O)c1 [Compound 2d, 3-(3-((((2R,3S,4R,5R)-5-(6-amino-9H-purin-9-yl)-3,4-dihydroxytetrahydrofuran-2-yl)methyl)amino)prop-1-yn-1-yl)benzamide]

Molecule: NC(=O)c1cccc(CCCCN(CCC[C@H](N)C(=O)O)C[C@H]2O[C@@H](n3cnc4c(N)ncnc43)[C@H](O)[C@@H]2O)c1 [Compound 3b, (S)-2-amino-5-((((2R,3S,4R,5R)-5-(6-amino-9H-purin-9-yl)-3,4-dihydroxytetrahydrofuran-2-yl)methyl)(4-(3-carbamoylphenyl)butyl)amino)pentanoic acid]
activity compared to respective parent compound 1g, 1h and 3a (NNMT [2]): either comparable or 3-fold decreased activities

Molecule: NC(=O)c1cccc(CCN(CCC[C@H](N)C(=O)O)C[C@H]2O[C@@H](n3cnc4c(N)ncnc43)[C@H](O)[C@@H]2O)c1 [MS2734]
fold higher inhibitory activity than MS 2756 (NNMT [3]; aspartic amino acid replaced with glutamic acid in the SAM portion): over 10 fold
activity of previously reported bisubstrate analogs (NNMT [3]): moderate activities at μM range

Molecule: NC(=O)c1cccc(CCN(CC[C@H](N)C(=O)O)C[C@H]2O[C@@H](n3cnc4c(N)ncnc43)[C@H](O)[C@@H]2O)c1 [MS2756]
activity of previously reported bisubstrate analogs (NNMT [3]): moderate activities at μM range

Molecule: NC(=O)c1cccc(C#C[C@@H](CC[C@H](N)C(=O)O)C[C@H]2O[C@@H](n3cnc4c(N)ncnc43)[C@H](O)[C@@H]2O)c1 [NS1]
Ki (NNMT [4]): ~0.0005 µM

Molecule: c1ccc2ncccc2c1 [Quinoline]
Km relative to nicotinamide (NNMT [1]): comparable to nicotinamide

Molecule: c1ccc2cnccc2c1 [isoquinoline]
Km relative to nicotinamide (NNMT [1]): ~3 fold

B1: NNMT (Homo sapiens) (protein)
chain: MESGFTSKDTYLSHFNPRDYLEKYYKFGSRHSAESQILKHLLKNLFKIFCLDGVKGDLLIDIGSGPTIYQLLSACESFKEIVVTDYSDQNLQELEKWLKKEPEAFDWSPVVTYVCDLEGNRVKGPEKEEKLRQAVKQVLKCDVTQSQPLGAVPLPPADCVLSTLCLDAACPDLPTYCRALRNLGSLLKPGGFLVIMDALKSSYYMIGEQKFSSLPLGREAVEAAVKEAGYTIEWFEVISQSYSSTMANNEGLFSLVARKLSRPL
Km (SAH hydrolase): 10 µM
Km [5]: 10 µM
